Assay results: ChEMBL document CHEMBL1201862, “PubChem BioAssay data set” (2004)
Where “and” joins values, the source holds several entries; their conditions need not be identical. Identical values can stand only once.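 The compound was tested at five concentrations on cells cultured in 96-well plates, with a 48-hour exposure period. The concentration for 50% growth inhibition is given as GI50.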 Calls of active or inactive are those of the source. No stated cut-off is given here; in the data, active = GI50 up to about 1.1 µM and inactive = higher.

Legend:
Assay in all cases: inhibition of tumour cell growth, NCI panel, 48 h
[1] = tested on: 786-0
[2] = tested on: A498
[3] = tested on: COLO 205
[4] = tested on: HT-29
[5] = tested on: KM12
[6] = tested on: NCI-H226
[7] = tested on: NCI-H23
[8] = tested on: OVCAR-3
[9] = tested on: OVCAR-4
[10] = tested on: OVCAR-5
[11] = tested on: OVCAR-8
[12] = tested on: RPMI-8226
[13] = tested on: SF-295
[14] = tested on: SK-MEL-28
[15] = tested on: SK-MEL-5
[16] = tested on: T47D
[17] = tested on: UACC-257
[18] = tested on: UO-31
[19] = tested on: RXF 393
[20] = tested on: SNB-75

Row | Compound | GI50 [1] | GI50 [2] | GI50 [3] | GI50 [4] | GI50 [5] | GI50 [6] | GI50 [7] | GI50 [8] | GI50 [9] | GI50 [10] | GI50 [11] | GI50 [12] | GI50 [13] | GI50 [14] | GI50 [15] | GI50 [16] | GI50 [17] | GI50 [18] | GI50 [19] | GI50 [20]
1 | COc1cccc(CC(=O)N2CCN(CCCc3ccccc3)CC2)c1 | > 100 µM (inactive) | > 100 µM (inactive) | 76.7 µM (inactive) | 31.4 µM (inactive) | > 100 µM (inactive) | > 100 µM (inactive) | 36.1 µM (inactive) | 60.1 µM (inactive) | 34.4 µM (inactive) | > 100 µM (inactive) | 53 µM (inactive) | 43.6 µM (inactive) | 47.5 µM (inactive) | > 100 µM (inactive) | 23.2 µM (inactive) | 22.2 µM (inactive) | 37.3 µM (inactive) | 39.1 µM (inactive) |  | 
2 | Cc1ccc(S(=O)(=O)N2CCN(CCO)CCN(S(=O)(=O)c3ccc(C)cc3)CCN(CCO)CC2)cc1 | 23.6 µM (inactive) | 24.7 µM (inactive) | 15.3 µM (inactive) | 12.2 µM (inactive) | 20.6 µM (inactive) | 20.9 µM (inactive) | 18.2 µM (inactive) | 18.7 µM (inactive) | 15 µM (inactive) | 44.1 µM (inactive) | 28 µM (inactive) |  | 31.7 µM (inactive) | 16.3 µM (inactive) | 13.6 µM (inactive) | 17.5 µM (inactive) | 10.3 µM (inactive) | 22.6 µM (inactive) | 13.9 µM (inactive) | 26.3 µM (inactive)
3 | c1csc(-c2nccc3c2[nH]c2ccccc23)c1 | 18.1 µM (inactive) | 15.3 µM (inactive) | 14.8 µM (inactive) | 15.1 µM (inactive) | 19.5 µM (inactive) | 12 µM (inactive) | 18.7 µM (inactive) | 20.5 µM (inactive) | 18.2 µM (inactive) | 28.2 µM (inactive) | 20.5 µM (inactive) |  | 16.1 µM (inactive) | 25.6 µM (inactive) | 16.7 µM (inactive) | 11.8 µM (inactive) | 21.2 µM (inactive) |  | 16.3 µM (inactive) | 14.1 µM (inactive)
4 | CC1=NN(C(=O)CC(=O)Nc2cccc(Cl)c2)C(=O)C1/N=N/c1ccc(C(=O)O)cc1 (stereo unspecified) | > 100 µM (inactive) | > 100 µM (inactive) | > 100 µM (inactive) | > 100 µM (inactive) | > 100 µM (inactive) |  | > 100 µM (inactive) | > 100 µM (inactive) | > 100 µM (inactive) | > 100 µM (inactive) | > 100 µM (inactive) | > 100 µM (inactive) | > 100 µM (inactive) | > 100 µM (inactive) | > 100 µM (inactive) | 37.2 µM (inactive) | > 100 µM (inactive) | 65.2 µM (inactive) | > 100 µM (inactive) | 52.1 µM (inactive)
5 | Cn1c(=O)oc2cc(C(=O)CN3CCN(Cc4ccc5c(c4)OCO5)CC3)c(Cl)cc21 | > 100 µM (inactive) |  | > 100 µM (inactive) |  |  |  | > 100 µM (inactive) |  |  | > 100 µM (inactive) |  | > 100 µM (inactive) | > 100 µM (inactive) |  | > 100 µM (inactive) | > 100 µM (inactive) |  | 94 µM (inactive) | > 100 µM (inactive) | > 100 µM (inactive)
6 | COc1ccc(C2=Cc3nc2c(-c2ccccc2)c2ccc([nH]2)c(-c2ccccc2)c2nc(c(-c4ccccc4)c4ccc([nH]4)c3-c3ccccc3)C=C2)cc1 | > 100 µM (inactive) | > 100 µM (inactive) | > 100 µM (inactive) | > 100 µM (inactive) | > 100 µM (inactive) | > 100 µM (inactive) | > 100 µM (inactive) | > 100 µM (inactive) | > 100 µM (inactive) | > 100 µM (inactive) | > 100 µM (inactive) |  | > 100 µM (inactive) | > 100 µM (inactive) | > 100 µM (inactive) | > 100 µM (inactive) |  | > 100 µM (inactive) | > 100 µM (inactive) | 25.2 µM (inactive)
7 | O=c1c2c3ccccc3[nH]c2c2cccc3c2n1CCC3 | 4.27 µM (inactive) | 20.7 µM (inactive) | 54 µM (inactive) | 29.6 µM (inactive) | 33.9 µM (inactive) | 50.6 µM (inactive) | 45.8 µM (inactive) | 30.6 µM (inactive) |  | 66.7 µM (inactive) | 50.9 µM (inactive) |  | 37.7 µM (inactive) | 41.8 µM (inactive) | 17.6 µM (inactive) | 61 µM (inactive) | 83 µM (inactive) | > 10 µM (inactive) | 29.4 µM (inactive) | 50.4 µM (inactive)
8 | CN(C)CCOC1(Cc2ccc(F)cc2)CCC(C(C)(C)C)CC1 (stereo unspecified) | 4.92 µM (inactive) and 4.2 µM (inactive) | 12.6 µM (inactive) and 14.7 µM (inactive) | 2.03 µM (inactive) and 2.15 µM (inactive) | 2.88 µM (inactive) and 2.7 µM (inactive) | 5.62 µM (inactive) and 5.02 µM (inactive) | 9.38 µM (inactive) and 10.5 µM (inactive) | 13.3 µM (inactive) and 12 µM (inactive) | 8.67 µM (inactive) and 13.4 µM (inactive) |  | 7.59 µM (inactive) and 7.85 µM (inactive) | 11.2 µM (inactive) and 12.8 µM (inactive) | 2.3 µM (inactive) and 2.48 µM (inactive) | 5.75 µM (inactive) and 6.38 µM (inactive) | 6.05 µM (inactive) and 4.17 µM (inactive) | 1.93 µM (inactive) and 1.74 µM (inactive) | 4.34 µM (inactive) and 5.09 µM (inactive) | 5.58 µM (inactive) and 4.09 µM (inactive) | 6.12 µM (inactive) and 4.81 µM (inactive) | 0.857 µM (active) | 
9 | CC(C)(C)OC(=O)N1CCCC1=O | > 10 µM (inactive) | > 10 µM (inactive) |  | > 10 µM (inactive) | > 10 µM (inactive) | > 10 µM (inactive) | > 10 µM (inactive) | > 10 µM (inactive) |  | > 10 µM (inactive) | > 10 µM (inactive) | > 10 µM (inactive) | > 10 µM (inactive) | > 10 µM (inactive) | > 10 µM (inactive) | > 10 µM (inactive) | > 10 µM (inactive) | > 10 µM (inactive) | > 10 µM (inactive) | > 10 µM (inactive)
10 | Cn1c([C@H](C#N)C(=O)c2cc(O)ccc2[N+](=O)[O-])nc2ccccc21 | > 100 µM (inactive) | > 100 µM (inactive) | > 100 µM (inactive) | > 100 µM (inactive) | > 100 µM (inactive) |  | > 100 µM (inactive) | > 100 µM (inactive) | > 100 µM (inactive) | > 100 µM (inactive) | > 100 µM (inactive) | > 100 µM (inactive) | > 100 µM (inactive) | > 100 µM (inactive) | > 100 µM (inactive) | > 100 µM (inactive) | > 100 µM (inactive) | > 100 µM (inactive) |  | > 100 µM (inactive)
11 | CC1=NN(c2cccc(Cl)c2)C(=N/c2nc3ccccc3s2)/C1=C\C=C\c1ccccc1 | 41.4 µM (inactive) | 24.7 µM (inactive) |  | 33.5 µM (inactive) | 34.2 µM (inactive) | 79.8 µM (inactive) | 32.1 µM (inactive) | 27 µM (inactive) | 45.1 µM (inactive) | 46.5 µM (inactive) | 36.1 µM (inactive) | 18.9 µM (inactive) | 33.5 µM (inactive) | 29.3 µM (inactive) | 20.6 µM (inactive) | 46.7 µM (inactive) | 31.5 µM (inactive) | 28.4 µM (inactive) | 51.4 µM (inactive) | 
12 | Cc1cc2nc(N3C(=O)/C(=C/c4ccc(Oc5ccccc5)cc4)N=C3c3ccccc3)sc2cc1C | 50.8 µM (inactive) | 54.7 µM (inactive) | 20.9 µM (inactive) | 31.6 µM (inactive) | 26.1 µM (inactive) |  | 42.7 µM (inactive) | 59.3 µM (inactive) | 45.7 µM (inactive) | 58.1 µM (inactive) | 71.8 µM (inactive) | 24.4 µM (inactive) | 33 µM (inactive) | 69.7 µM (inactive) | 30.8 µM (inactive) | 42.3 µM (inactive) | 29.2 µM (inactive) | 50.7 µM (inactive) | 58.9 µM (inactive) | 62.2 µM (inactive)
13 | N#CCC(=O)N/N=C\C(O)C(O)C(O)C(O)CO (stereo unspecified) | > 100 µM (inactive) | > 100 µM (inactive) |  | > 100 µM (inactive) | > 100 µM (inactive) | > 100 µM (inactive) | > 100 µM (inactive) | > 100 µM (inactive) |  | > 100 µM (inactive) | > 100 µM (inactive) | > 100 µM (inactive) | > 100 µM (inactive) | > 100 µM (inactive) | > 100 µM (inactive) | > 100 µM (inactive) | > 100 µM (inactive) | > 100 µM (inactive) | > 100 µM (inactive) | > 100 µM (inactive)
14 | Cc1cc(NS(=O)(=O)c2ccc(Nc3c4ccccc4nc4ccc(C(=O)Nc5ccc(S(=O)(=O)N=C(N)N)cc5)cc34)cc2)no1 | > 100 µM (inactive) |  | > 100 µM (inactive) | > 100 µM (inactive) | > 100 µM (inactive) | > 100 µM (inactive) | > 100 µM (inactive) | > 100 µM (inactive) | > 100 µM (inactive) | > 100 µM (inactive) | > 100 µM (inactive) | > 100 µM (inactive) | > 100 µM (inactive) | > 100 µM (inactive) | > 100 µM (inactive) | > 100 µM (inactive) | > 100 µM (inactive) | > 100 µM (inactive) | > 100 µM (inactive) | > 100 µM (inactive)
15 | COC1(OC)c2occc2C(=N)c2ccc(=O)oc21 | > 100 µM (inactive) | > 100 µM (inactive) | > 100 µM (inactive) | > 100 µM (inactive) |  | > 100 µM (inactive) | > 100 µM (inactive) | 77.8 µM (inactive) | > 100 µM (inactive) | > 100 µM (inactive) |  | > 100 µM (inactive) | > 100 µM (inactive) | > 100 µM (inactive) | 22.4 µM (inactive) | > 100 µM (inactive) | > 100 µM (inactive) | > 100 µM (inactive) | > 100 µM (inactive) | 
